Assay results published in article PMC6298115, “Design and in vitro realization of carbon-conserving photorespiration” (Proceedings of the National Academy of Sciences of the …, 2018).

Columns and labels:
RpPduP [1] = target: T1, RpPduP (Rhodopseudomonas palustris, UniProt Q21A49); assay: NADPH oxidation, absorbance at […] nm; assay type: biochemical; settings: pH 8.0 Hepes, 37 °C, 5 mM MgCl2
T1 construct: gene RPC_1174; N-terminal 6xHis, pET45a, expressed in E. coli BL21(DE3), Ni-NTA

RpPduP [2] = target: T2, RpPduP (Rhodopseudomonas palustris, UniProt Q21A49, P164G/I199R/N203L/I222L/L268I/P269T/V271T/L423H, form not given); assay: NADPH oxidation, absorbance at […] nm; assay type: biochemical; settings: GCR, pH 8.0 Hepes, 37 °C, 5 mM MgCl2, Table 2 note numbers mutations +2, read-out: Engineered GCR
T2 construct: gene RPC_1174; N-terminal 6xHis, pET45a, expressed in E. coli BL21(DE3), Ni-NTA

RpPduP [3] = target: T2, RpPduP; assay: NADH oxidation, absorbance at […] nm; assay type: biochemical; settings: GCR; saturating acetyl-CoA; pH 8.0 Hepes, 37 °C, 5 mM MgCl2; Table 2 note numbers mutations +2; read-out: Engineered GCR
RpPduP [4] = target: T1, RpPduP; assay: NADH oxidation, absorbance at […] nm; assay type: biochemical; settings: pH 8.0 Hepes, 37 °C, 5 mM MgCl2
purified protein = substrate: CC(=O)O; assay: purified protein; settings: 1 mM CoA, 2.5 mM ATP, 5 mM MgCl2, 1 mM DTT, pH 8.0 Hepes, 37 °C

T1 sequence (Q21A49 entry or part of it): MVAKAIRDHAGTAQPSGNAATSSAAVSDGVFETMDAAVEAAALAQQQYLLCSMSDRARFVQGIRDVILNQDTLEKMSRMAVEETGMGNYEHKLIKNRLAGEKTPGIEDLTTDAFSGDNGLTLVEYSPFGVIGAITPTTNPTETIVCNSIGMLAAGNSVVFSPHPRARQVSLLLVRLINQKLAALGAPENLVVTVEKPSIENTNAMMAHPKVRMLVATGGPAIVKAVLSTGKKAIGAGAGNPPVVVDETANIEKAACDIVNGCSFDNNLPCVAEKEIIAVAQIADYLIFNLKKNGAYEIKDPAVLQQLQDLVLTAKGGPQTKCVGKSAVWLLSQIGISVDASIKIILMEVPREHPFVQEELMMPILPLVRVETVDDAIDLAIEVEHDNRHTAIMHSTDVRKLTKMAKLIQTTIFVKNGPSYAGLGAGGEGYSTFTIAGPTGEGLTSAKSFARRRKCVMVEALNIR
T2 sequence (Q21A49 entry or part of it P164G/I199R/N203L/I222L/L268I/P269T/V271T/L423H, form open): as the sequence (Q21A49 entry or part of it) above, with P164G, I199R, N203L, I222L, L268I, P269T, V271T, L423H counted along it

Molecule `CC(=O)SCCNC(=O)CCNC(=O)[C@H](O)C(C)(C)COP(=O)(O)OP(=O)(O)OC[C@H]1O[C@@H](n2cnc3c(N)ncnc32)[C@H](O)[C@@H]1OP(=O)(O)O` [acetyl-CoA] has a Km (RpPduP [1]; saturating NADPH) of 220 ± 20 µM and a Km (RpPduP [2]; saturating NADPH) of 220 ± 60 µM.

With `NC(=O)C1=CN([C@@H]2O[C@H](COP(=O)(O)OP(=O)(O)OC[C@H]3O[C@@H](n4cnc5c(N)ncnc54)[C@H](O)[C@@H]3O)[C@@H](O)[C@H]2O)C=CC1` [NADH] the Km (RpPduP [3]) was 70 ± 10 µM and the Km (RpPduP [4]; saturating acetyl-CoA) was 120 ± 30 µM.

With `CC(C)(COP(=O)(O)OP(=O)(O)OC[C@H]1O[C@@H](n2cnc3c(N)ncnc32)[C@H](O)[C@@H]1OP(=O)(O)O)[C@@H](O)C(=O)NCCC(=O)NCCSC(=O)CO` [glycolyl-CoA] the Km (RpPduP [2]; saturating NADPH) was 240 ± 20 µM and the Km (RpPduP [4]; saturating NADH) was 220 ± 120 µM.

Work on `NC(=O)C1=CN([C@@H]2O[C@H](COP(=O)(O)OP(=O)(O)OC[C@H]3O[C@@H](n4cnc5c(N)ncnc54)[C@H](OP(=O)(O)O)[C@@H]3O)[C@@H](O)[C@H]2O)C=CC1` [NADPH] yielded a Km (RpPduP [1]; saturating glycolyl-CoA) of 370 ± 90 µM and a Km (RpPduP [2]; saturating glycolyl-CoA) of 240 ± 60 µM.

B1: EcACS (Escherichia coli K-12) (protein)
chain: MSQIHKHTIPANIADRCLINPQQYEAMYQQSINVPDTFWGEQGKILDWIKPYQKVKNTSFAPGNVSIKWYEDGTLNLAANCLDRHLQENGDRTAIIWEGDDASQSKHISYKELHRDVCRFANTLLELGIKKGDVVAIYMPMVPEAAVAMLACARIGAVHSVIFGGFSPEAVAGRIIDSNSRLVITSDEGVRAGRSIPLKKNVDDALKNPNVTSVEHVVVLKRTGGKIDWQEGRDLWWHDLVEQASDQHQAEEMNAEDPLFILYTSGSTGKPKGVLHTTGGYLVYAALTFKYVFDYHPGDIYWCTADVGWVTGHSYLLYGPLACGATTLMFEGVPNWPTPARMAQVVDKHQVNILYTAPTAIRALMAEGDKAIEGTDRSSLRILGSVGEPINPEAWEWYWKKIGNEKCPVVDTWWQTETGGFMITPLPGATELKAGSATRPFFGVQPALVDNEGNPLEGATEGSLVITDSWPGQARTLFGDHERFEQTYFSTFKNMYFSGDGARRDEDGYYWITGRVDDVLNVSGHRLGTAEIESALVAHPKIAEAAVVGIPHNIKGQAIYAYVTLNHGEEPSPELYAEVRNWVRKEIGPLATPDVLHWTDSLPKTRSGKIMRRILRKIAAGDTSNLGDTSTLADPGVVEKLLEEKQAIAMPS
Molecule B1 has a Km (purified protein) of 87 ± 4 µM, a kcat (purified protein) of 13.5 s⁻¹ and a kcat/Km (purified protein) of 155000 M⁻¹ s⁻¹.
